From article PMC5655388, “Nicotinamide-based diamides derivatives as potential cytotoxic agents: synthesis and biological evaluation” (Chemistry Central Journal, 2017) come the findings set out here.

In brackets after ≈: the same amount, converted by molar mass. Bounds are passed on as bounds.

Series [1] can be described thus: MTT in vitro cytotoxicity assay, MDCK normal cells. The following applies: dog, MDCK normal kidney cells, mean ± SD. The series is classed as cell-based, canine. How it is done:
(§1) All newly prepared nicotinamide-based diamides derivatives 4a–k and several similar diamides 4l–o were evaluated for their in vitro cytotoxic effects against NCI-H460 (Human large cell lung cancer cell line), A549 (Human lung cancer cell line), NCI-H1975 (Human lung cancer cell line), HL-7702 (Human normal liver cells), and MDCK (Madin-Darby canine kidney cells) cell lines by the modified MTT (3-(4,5-dimethylthiazol-2-yl)-2,5-diphenyl tetrazolium bromide) assay using 5-FU (5-Fluorouracil) as a positive control.
(§2) The in vitro cytotoxicity of the synthesized compounds against different human lung cancer cell lines (NCI-H460, A549, NCI-H1975) and normal cells (HL-7702 and MDCK) were measured with the 3-(4,5-dimethylthiazol-2-yl)-2,5-diphenyl tetrazolium bromide (MTT) assay. All the data of the experiment were analyzed with SPSS software, and the 50% inhibitory concentrations (IC50) of each compound for the different cell lines were determined. A control was run for each test, and all assays were performed in triplicate on three independent experiments, and measurement data were expressed as the mean ± SD.

The nature of series [2]: MTT in vitro cytotoxicity assay, HL-7702 normal cells. It counts as cell-based. The following applies: human, HL-7702 normal liver cells, mean ± SD. The procedure:
as §1, §2

The test system of series [3] is NCI-H460 (Human large cell lung cancer cell line). As to the kind of experiment: MTT in vitro cytotoxicity assay, NCI-H460. The following applies: for IC50: Homo sapiens, NCI-H460 cells, MTT assay, mean ± SD; for Cytotoxic (inhibitory) activity at single concentration, NCI-H460: 40 µg/mL, preliminary screen (Fig. 4), result in words. It counts as cell-based. How it is done: as §1, §2
For orientation: Tetrazolium assays rely on reduction of a dye to a coloured formazan, in cell work by metabolically active cells.

The test system of series [4] is A549 (Human lung cancer cell line). The series can be described thus: MTT in vitro cytotoxicity assay, A549. The series is classed as cell-based. The following applies: for IC50: Homo sapiens, A549 cells, MTT assay, mean ± SD; for Cytotoxic (inhibitory) activity at single concentration, A549: 40 µg/mL, preliminary screen (Fig. 4), result in words. How it is done: as §1, §2

In series [5] the test system is NCI-H1975 (Human lung cancer cell line). As to the kind of experiment: MTT in vitro cytotoxicity assay, NCI-H1975. The series is classed as cell-based. The following applies: for IC50: Homo sapiens, NCI-H1975 cells, MTT assay, mean ± SD; for Cytotoxic (inhibitory) activity at single concentration, NCI-H1975: 40 µg/mL, preliminary screen (Fig. 4), result in words. How it is done:
as §1, §2

One may read the IC50 as the point on the concentration scale where inhibition reaches its midpoint. Low readings indicate higher potency, high ones lower potency. `NC(=O)c1cc2ccccc2cc1NC(=O)c1cccnc1Nc1cccc(C(F)(F)F)c1` [4j, N-(3-Carbamoylnaphthalen-2-yl)-2-((3-(trifluoromethyl)phenyl)amino)nicotinamide]: the IC50 in series [1] is 14.3 ± 0.66 µg/mL (≈ 31.7 µM); in series [2], 18.1 ± 1.63 µg/mL (≈ 40.2 µM); in series [3] it was 38.4 ± 3.95 µg/mL (≈ 85.3 µM); in series [4], 24.8 ± 3 µg/mL (≈ 55 µM); in series [5], 25.2 ± 3.35 µg/mL (≈ 55.9 µM).

As for `CNC(=O)c1cc2ccccc2cc1NC(=O)c1cccnc1Nc1cccc(C(F)(F)F)c1` [4k, N-(3-(Methylcarbamoyl)naphthalen-2-yl)-2-((3-(trifluoromethyl)phenyl)amino)nicotinamide], the IC50 is above 40 µg/mL in series [1]; above 40 µg/mL in series [2]; above 40 µg/mL in series [3]; 35.3 ± 2.19 µg/mL (≈ 76 µM) in series [4]; above 40 µg/mL in series [5]. Further, the “Cytotoxic (inhibitory) activity at single concentration, A549” value (from here on “Cytotoxic (inhibitory) activity … A549”) in series [4] is recorded as “selective cytotoxicity”.

Consider `NC(=O)c1cccnc1NC(=O)c1cccnc1Nc1cccc(C(F)(F)F)c1` [4g, N-(3-Carbamoylpyridin-2-yl)-2-((3-(trifluoromethyl)phenyl)amino)nicotinamide], for which the IC50 in series [1] stood at 13 ± 1.27 µg/mL (≈ 32.5 µM); in series [2] it was 9.86 ± 0.34 µg/mL (≈ 24.6 µM); in series [3] it was 9.17 ± 2.02 µg/mL (≈ 22.8 µM); in series [4], 20.1 ± 0.48 µg/mL (≈ 50.1 µM); in series [5], 10.8 ± 2.22 µg/mL (≈ 27 µM). Besides, the “Cytotoxic (inhibitory) activity at single concentration, NCI-H460” value (“Cytotoxic (inhibitory) activity … NCI-H460” for short) in series [3] is on record as “significant inhibitory activities”. The “Cytotoxic (inhibitory) activity … A549” value in series [4] was “significant inhibitory activities”. In addition, in series [5], the “Cytotoxic (inhibitory) activity at single concentration, NCI-H1975” value (“Cytotoxic (inhibitory) activity … NCI-H1975” for short) was “significant inhibitory activities”.

Consider `O=c1[nH]cc(F)c(=O)[nH]1` [5-FU, 5-Fluorouracil, reference compound], for which the IC50 was 8.65 ± 0.81 µg/mL (≈ 66.5 µM) in series [1]; 11.3 ± 1.67 µg/mL (≈ 87.3 µM) in series [2]; 8.02 ± 2.35 µg/mL (≈ 61.7 µM) in series [3]; 37.5 ± 3.25 µg/mL (≈ 288 µM) in series [4]; 24.8 ± 5.8 µg/mL (≈ 190 µM) in series [5].

`Cc1cc(Cl)cc(C(N)=O)c1NC(=O)c1ccccc1Nc1cccc(C(F)(F)F)c1` [4l, 5-Chloro-3-methyl-2-(2-((3-(trifluoromethyl)phenyl)amino)benzamido)benzamide]: the IC50 in series [1], in series [2], in series [3], in series [4] and in series [5] was above 40 µg/mL throughout. For the same molecule, in series [4], the “Cytotoxic (inhibitory) activity … A549” value was “selective cytotoxicity”.

On to `CC(O)CNC(=O)c1cccnc1NC(=O)c1ccccc1Nc1cccc(C(F)(F)F)c1` (centres unmarked) [4c, N-(2-Hydroxypropyl)-2-(2-((3-(trifluoromethyl)phenyl)amino)benzamido)nicotinamide], for which the IC50 in series [1] is 17 ± 0.84 µg/mL (≈ 37 µM); in series [2] it was 19.7 ± 0.45 µg/mL (≈ 43 µM); in series [3], 20.6 ± 1.37 µg/mL (≈ 45 µM); in series [4] it was 26.3 ± 3.22 µg/mL (≈ 57.4 µM); in series [5] it was 27.2 ± 2.76 µg/mL (≈ 59.4 µM). Further, in series [3], the “Cytotoxic (inhibitory) activity … NCI-H460” value was “significant inhibitory activities”. Besides, in series [4], the “Cytotoxic (inhibitory) activity … A549” value is “significant inhibitory activities”. For the same molecule, in series [5], the “Cytotoxic (inhibitory) activity … NCI-H1975” value was “significant inhibitory activities”.

With `NC(=O)c1cccnc1NC(=O)c1ccccc1Nc1cccc(C(F)(F)F)c1` [4a, 2-(2-((3-(Trifluoromethyl)phenyl)amino)benzamido)nicotinamide], the IC50 in series [1], in series [2], in series [3], in series [4] and in series [5] was above 40 µg/mL throughout.

For the molecule `NC(=O)c1cc2ccccc2cc1NC(=O)c1ccccc1Nc1cccc(C(F)(F)F)c1` [4n, 3-(2-((3-(Trifluoromethyl)phenyl)amino)benzamido)-2-naphthamide], the IC50 is 14.44 ± 0.01 µg/mL (≈ 32.1 µM) in series [1]; above 40 µg/mL in series [2]; above 40 µg/mL in series [3]; above 40 µg/mL in series [4]; above 40 µg/mL in series [5].

Turning to `CNC(=O)c1cccnc1NC(=O)c1ccccc1Nc1cccc(C(F)(F)F)c1` [4b, N-Methyl-2-(2-((3-(trifluoromethyl)phenyl)amino)benzamido)nicotinamide], the IC50 in series [1] was above 40 µg/mL; in series [2] it was above 40 µg/mL; in series [3] it was 36.7 ± 2.8 µg/mL (≈ 88.5 µM); in series [4], above 40 µg/mL; in series [5], above 40 µg/mL.

Regarding `CC(=O)CNC(=O)c1cccnc1NC(=O)c1ccccc1Nc1cccc(C(F)(F)F)c1` [4d, N-(2-Oxopropyl)-2-(2-((3-(trifluoromethyl)phenyl)amino)benzamido)nicotinamide], the half-inhibitory concentration (IC50) was 13.4 ± 0.29 µg/mL (≈ 29.5 µM) in series [1]; 26.9 ± 0.95 µg/mL (≈ 58.9 µM) in series [2]; 4.07 ± 1.3 µg/mL (≈ 8.92 µM) in series [3]; 13.1 ± 2.45 µg/mL (≈ 28.7 µM) in series [4]; 12.8 ± 1.59 µg/mL (≈ 28.1 µM) in series [5]. For the same molecule, in series [3], the “Cytotoxic (inhibitory) activity … NCI-H460” value is “significant inhibitory activities”. Moreover, in series [4], the “Cytotoxic (inhibitory) activity … A549” value is recorded as “significant inhibitory activities”. For the same molecule, the “Cytotoxic (inhibitory) activity … NCI-H1975” value in series [5] is “significant inhibitory activities”.

Take `CNC(=O)c1cccnc1NC(=O)c1cccnc1Nc1cccc(C(F)(F)F)c1` [4h, N-Methyl-2-(2-((3-(trifluoromethyl)phenyl)amino)nicotinamido)nicotinamide]: the IC50 in series [1] was 11.1 ± 0.24 µg/mL (≈ 26.6 µM); in series [2], 11.6 ± 2.08 µg/mL (≈ 28 µM); in series [3] it was 9.31 ± 2.66 µg/mL (≈ 22.4 µM); in series [4] it was 17.2 ± 3.4 µg/mL (≈ 41.4 µM); in series [5], 12.4 ± 2.52 µg/mL (≈ 29.9 µM). Besides, the “Cytotoxic (inhibitory) activity … NCI-H460” value in series [3] is “significant inhibitory activities”. In addition, the “Cytotoxic (inhibitory) activity … A549” value in series [4] is listed as “significant inhibitory activities”. Further, the “Cytotoxic (inhibitory) activity … NCI-H1975” value in series [5] is reported as “significant inhibitory activities”.

Consider `Cc1cc(Cl)cc(C(N)=O)c1NC(=O)c1cccnc1Nc1cccc(C(F)(F)F)c1` [4e, N-(2-Carbamoyl-4-chloro-6-methylphenyl)-2-((3-(trifluoromethyl)phenyl)amino)nicotinamide], for which the IC50 in series [1], in series [2], in series [3], in series [4] and in series [5] was above 40 µg/mL in each case. For the same molecule, the “Cytotoxic (inhibitory) activity … A549” value in series [4] is given as “selective cytotoxicity”.

Regarding `CNC(=O)c1cc(Cl)cc(C)c1NC(=O)c1ccccc1Nc1cccc(C(F)(F)F)c1` [4m, 5-Chloro-N,3-dimethyl-2-(2-((3-(trifluoromethyl)phenyl)amino)benzamido)benzamide], the concentration for half-maximal inhibition (IC50) stood at 21.2 ± 3.59 µg/mL (≈ 46 µM) in series [1]; 21.4 ± 1.79 µg/mL (≈ 46.4 µM) in series [2]; 6.85 ± 0.23 µg/mL (≈ 14.8 µM) in series [3]; 6.77 ± 0.86 µg/mL (≈ 14.7 µM) in series [4]; 10.8 ± 1.02 µg/mL (≈ 23.4 µM) in series [5]. Also, in series [3], the “Cytotoxic (inhibitory) activity … NCI-H460” value was “good inhibition activities”. For the same molecule, the “Cytotoxic (inhibitory) activity … A549” value in series [4] was “good inhibition activities”. Also, the “Cytotoxic (inhibitory) activity … NCI-H1975” value in series [5] was “good inhibition activities”.

In the case of `CNC(=O)c1cc2ccccc2cc1NC(=O)c1ccccc1Nc1cccc(C(F)(F)F)c1` [4o, N-Methyl-3-(2-((3-(trifluoromethyl)phenyl)amino)benzamido)-2-naphthamide], the IC50 in series [1], in series [2], in series [3], in series [4] and in series [5] was above 40 µg/mL in each case.

As for `CC(O)CNC(=O)c1cccnc1NC(=O)c1cccnc1Nc1cccc(C(F)(F)F)c1` (centres unmarked) [4i, N-(2-Hydroxypropyl)-2-(2-((3-(trifluoromethyl)phenyl)amino)nicotinamido)nicotinamide], the IC50 in series [1] worked out at 11.62 ± 0.06 µg/mL (≈ 25.3 µM); in series [2] it was 14.5 ± 2.19 µg/mL (≈ 31.6 µM); in series [3], 13.1 ± 4.49 µg/mL (≈ 28.5 µM); in series [4] it was 16.5 ± 3.53 µg/mL (≈ 36 µM); in series [5] it was 9.15 ± 1.64 µg/mL (≈ 19.9 µM). In series [3], the “Cytotoxic (inhibitory) activity … NCI-H460” value is “significant inhibitory activities”. The “Cytotoxic (inhibitory) activity … A549” value in series [4] is recorded as “significant inhibitory activities”. For the same molecule, the “Cytotoxic (inhibitory) activity … NCI-H1975” value in series [5] is given as “significant inhibitory activities”.

In the case of `CNC(=O)c1cc(Cl)cc(C)c1NC(=O)c1cccnc1Nc1cccc(C(F)(F)F)c1` [4f, N-(4-Chloro-2-methyl-6-(methylcarbamoyl)phenyl)-2-((3-(trifluoromethyl)phenyl)amino)nicotinamide], the IC50 in series [1], in series [2], in series [3], in series [4] and in series [5] was above 40 µg/mL in each case.
